# Test results as given in US7217810B2, “High level production of arbutin in green plants and microbes” (E. I. du Pont de Nemours and Company, priority 2003, dated 2007).
# Legend:
# [1] = biological target: T1, UGT72B1 (Arabidopsis thaliana, UniProt Q9M156); details: highest of the benzoic acid derivatives analyzed; cited from earlier work
# T1 construct: host or cells: E. coli (per the cited work)
# T1 sequence (Q9M156 1-480): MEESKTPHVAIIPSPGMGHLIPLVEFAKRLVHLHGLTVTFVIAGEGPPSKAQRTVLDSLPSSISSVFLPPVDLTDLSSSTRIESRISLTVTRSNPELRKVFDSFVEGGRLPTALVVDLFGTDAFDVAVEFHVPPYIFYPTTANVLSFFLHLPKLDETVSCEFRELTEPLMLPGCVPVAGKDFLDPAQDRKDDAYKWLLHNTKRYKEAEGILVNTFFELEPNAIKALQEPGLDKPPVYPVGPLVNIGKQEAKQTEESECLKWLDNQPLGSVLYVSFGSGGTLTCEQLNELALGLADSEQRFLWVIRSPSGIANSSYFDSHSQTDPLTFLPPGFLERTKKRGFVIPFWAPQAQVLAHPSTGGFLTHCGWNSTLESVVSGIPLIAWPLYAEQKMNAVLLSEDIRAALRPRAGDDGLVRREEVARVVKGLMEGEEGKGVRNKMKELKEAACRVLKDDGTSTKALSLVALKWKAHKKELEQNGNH
# [2] = biological target: T2, arbutin synthase (Rauvolfia serpentina, UniProt Q9AR73); details: 50° C., converted from cited Vmax using 51,793.01 Da
# Method: (§1) This turnover number was calculated using a molecular weight of the UGT72B1 enzyme of 53,015.33 Da calculated with the PEPIDESORT software package of the GCG.
# [3] = biological target: UGT72B1 (Arabidopsis thaliana, UniProt Q9M156, E284K/I310V/T253S)
# Method: The enzyme was diluted to a final concentration of 0.115 ng/μL using 50 mM Tris HCl (pH 7.5), 1 mM MgCl2 and 2 mM DTT. […] Arbutin formation was quantitated by HPLC analysis as follows: 10 μL of analyte were separated on a Nova-Pak® C18 column (60 Å pore size, […]) using a gradient from 2% acetonitrile, 1.5% phosphoric acid (solvent A) to 48% acetonitrile, 1.5% phosphoric acid (solvent B). The following solvent gradient is applied: 0–5 min 100% solvent A; 5–20 min linear gradient of 0–100% solvent B; 21–25 min 100% solvent A. Arbutin was detected at 221 nm absorbance wavelength and quantitated using calibration curves generated with a commercially available standard of arbutin.
# The data was fitted to the Michaelis-Menten equation. […] In this plot, an estimate of the Km is provided as the slope of the line representing the linear regression curve through the points and the Vmax by the intercept of the regression curve with the y axis.
# as §1
# [4] = biological target: T2, arbutin synthase; details: 50° C., 1 mM hydroquinone; cited from earlier work
# [5] = tested on: Oc1ccc(O)cc1; assay: purified protein, by the assay type; details: pH 7.5; 37.0 °C
# [6] = tested on: O=C(O)c1ccc(O)cc1; assay: purified protein, by the assay type; details: other: pHBA 0.2 to 400 μM, fitted to Michaelis-Menten equation; 25.0 °C
compound,measurement,setting,value
"O=C(O)c1cc(O)ccc1O [2,5-dihydroxybenzoic acid]",specific activity,[1],11.72 pkat/μg protein
"Oc1ccc(O)cc1 [hydroquinone, 1,4-dihydroxybenzene]",turnover number,[2],1.4 s⁻¹
same,apparent Km,[3],~0.3 µM
same,hydroquinone concentration giving significant substrate inhibition,"[3]; Michaelis-Menten plot, FIG. 5",greater than 100 μM
same,Vmax with hydroquinone relative to Vmax with benzoic acid substrates,[3]; compared with Lim et al. values,~68 fold
same,apparent Vmax,"[3]; hydroquinone as substrate, 20 mM UDPG, 37° C., Hofstee plot",~796 pmol/sec/1 g
same,turnover number (Kcat),"[3]; hydroquinone as substrate, 37° C.",42 s⁻¹
same,Vmax,[4],26.32 pkat/μg
UGT72B1 (Arabidopsis thaliana; E284K/I310V/T253S),Km,[5],0.3 µM
pHBA 1-hydroxylase (Lodderomyces parapsilosis CDC317),Km,[6],0.31 µM
same,Vmax,[6],6.4 µmol/min/mg
